According to patent publication US20040132642A1, “Methods of inhibiting metastasis or growth of a tumor cell” (Government of the U.S.A., represented by the Secretary, …, priority 2002, published 2004):

Experiments:
pLNCX2-B16 cells [1] = experiment: pulmonary metastasis after i.v. injection of pLNCX2-B16 cells (lung luciferase assay); assay type: in vivo; conditions: pLNCX2-B16-injected mice
Protocol: (§1) Luciferase activity was measured using a Luciferase Reporter assay system (Promega, Madison, Wis.). Cultured cells were lysed with 100 μl of undiluted lysis buffer and then assayed in the presence of luciferin using a Thermo Labsystems MLX 96-well luminometer (Helsinki, Finland). Units are in arbitrary light units. For tissue assays, organs from each animal were homogenized in 1 ml of lysis buffer, of which 25 μl aliquots were then assayed in duplicate. Means of duplicates were used to represent the luciferase activity for a given tissue from a particular animal. Five to ten animals per experimental treatment group were used for typical experiments.
CXCR4- and pLNCX2-B16 cells in exponential growth phase were harvested by trypsinization and washed twice in PBS prior to injection. Cell viability was >95% as determined by trypan blue dye exclusion. […] Tumor growth was monitored three times per week by measurement of two maximum perpendicular tumor diameters. […]
CXCR4-B16 and pLNCX2-B16 cells in exponential growth phase were harvested by trypsinization and washed twice in PBS before injection. Cell viability was >95% as determined by trypan blue dye exclusion. […] Mice were euthanized after 14 days for gross inspection of lungs and luciferase quantification of metastasis by luciferase activity (Murakami et al., Cancer Res. 62:7328-7334 (2002)). […]

pLNCX2-B16 cells [2] = experiment: growth of pLNCX2-B16 cells under low serum conditions in vitro; assay type: cell-based, murine; conditions: for cell count pLNCX2-B16 24 h / cell count pLNCX2-B16 48 h: low serum (0.5% FCS); for effect on growth of pLNCX2-B16 cells: under either low or high serum conditions
Protocol: (§2) CXCR4- and pLNCX2-B16 cells (2×10^4 cells/well) were cultured in triplicate for 24 hr in 24-well plates containing B16 growth medium (DMEM, 10% FCS). After rinsing the cells in serum-free DMEM, the B16 cells were incubated for 40 hr at 37° C. in DMEM containing low serum (0.5% FCS). At this point, CXCL12 (500 ng/ml) was added to the cells by itself or with either T22 or control ALA peptide at 1 μg/ml for the indicated times. Cells were then harvested at 24 or 48 hr later and counted by a hemacytometer.

[3] = tested on: activated bone-marrow-derived dendritic cells; experiment: in vitro chemotaxis of dendritic cells to CXCL12; assay type: cell-based; conditions: T22 500 ng/ml; 200 ng/ml of CXCL12
CXCR4-B16 cells [4] = experiment: pulmonary metastasis after i.v. injection of CXCR4-B16 cells (lung luciferase assay); assay type: in vivo, mice; conditions: for effect on pulmonary metastasis: CXCR4-B16-injected mice; for effect on pulmonary metastasis / Average weight: 4 μg peptide i.p. daily; for Average Relative Luciferase Units: CXCR4-B16 i.v., 14-day assay; for Luciferase activity (RLU): lung, 4 μg peptide/mouse i.p. daily; for Luciferase activity (RLU) / Average weight: CXCR4-B16 cells i.v.; for Average weight: mass of the lungs
Protocol: as §1
(§3) CXCR4- and pLNCX2-B16 cells in exponential growth phase were harvested by trypsinization and washed twice in PBS prior to injection. Cell viability was >95% as determined by trypan blue dye exclusion. For the footpad (i.e., subcutaneous) injection, B16 cells (4×10^5 cells in 20 μl PBS) were subcutaneously injected into the left footpads of C57BL/6 mice. Tumor growth was monitored three times per week by measurement of two maximum perpendicular tumor diameters. When tumors reached 5-7 mm in size, animals were euthanized prior to harvesting of lung and LN. Popliteal LN were removed by gently pulling skin (including the dermis and subcutaneous fat) above the popliteal fossa and carefully exposing the LN resting in the adipose tissue of the fossa with a pair of forceps. For intravenous injection, 4×10^5 CXCR4- or pLNCX2-B16 cells in 200 μl were injected into the tail veins of mice. T22 and ALA peptides in sterile PBS were administered via an intraperitoneal (i.p.) route using 4 μg peptide/mouse daily for the indicated duration of treatment. Experiments were performed 2-4 times each with similar trends.
To determine whether T22 would inhibit the CXCR4-mediated increase in metastasis, mice were injected intravenously with CXCR4-B16 and pLNCX2-B16 cells. Subgroups of CXCR4-B16 mice were treated daily with 4 μg of either T22 or ALA control peptide. CXCR4-B16 cells accumulated in greater numbers in the lung compared to pLNCX2-B16 cells (Table 4), confirming the results described in Example 2.
It has been shown that the CXCR4 inhibitory peptide, T22, blocked pulmonary metastasis of CXCR4-B16 cells when this CXCR4 inhibitor was used daily throughout the course of the 14-day metastastis assay (Murakami et al., Cancer Res. 62:7328-7334 (2002)). To determine if short-term treatment with T22 was also effective in blocking metastasis, the in vivo assay described in Murakami et al., Cancer Res. 62:7328-7334 (2002), was modified and the drug was only given for the first two days of the 14-day waiting period following i.v. injection of CXCR4-B16 and pLNCX2-B16 cells. In one group of animals, the CXCR4 antagonist peptide T22 was administered intraperitoneally (i.p.) shortly after tumor inoculation and again 24 hours later. In another group of CXCR4-B16-injected mice, T22 was given daily for 14 days.
To determine whether T22 treatment during the last 7 days of the metastasis assay could reduce tumor burden, T22 was given daily either during the entire 2-week treatment period or for just the second week (Table 9).
CXCR4-B16 and pLNCX2-B16 cells in exponential growth phase were harvested by trypsinization and washed twice in PBS before injection. Cell viability was >95% as determined by trypan blue dye exclusion. CXCR4-B16 or pLNCX2-B16 cells (4×10^5 in 200 μl PBS) were then injected into the tail veins of mice. T22 and ALA peptides in sterile PBS were administered via an i.p. route using 4 μg peptide/mouse daily for the indicated duration of treatment as described (Murakami et al., Cancer Res. 62:7328-7334 (2002)). Mice were euthanized after 14 days for gross inspection of lungs and luciferase quantification of metastasis by luciferase activity (Murakami et al., Cancer Res. 62:7328-7334 (2002)). […]

CXCR4-B16 cells [5] = experiment: growth of CXCR4-B16 cells under low serum conditions in vitro; assay type: cell-based, murine; conditions: for effect of peptide alone on growth: T22 or ALA alone; for cell count CXCR4-B16 24 h / cell count CXCR4-B16 48 h: low serum (0.5% FCS); for block of growth stimulated by CXCL12: low serum, in the presence of CXCL12
Protocol: as §2

CXCR4-B16 cells [6] = experiment: growth of CXCR4-B16 cells injected into the footpad; assay type: in vivo, mice; conditions: compared to either PBS or ALA
Protocol: as §3

CXCR4-B16 cells [7] = experiment: arrest of CXCR4-B16 cells on VCAM-1/Ig-coated plates under flow; assay type: cell-based, murine; conditions: CXCR4-B16 on plates co-coated with VCAM-1/Ig and 1 μg/ml chemokine; 1.5 dynes/cm^2
Protocol: Cell suspension plates (35 mm, Model # 430588, Corning Inc., NY) were coated with human VCAM-1/IgG chimera (1 μg/ml) overnight at 4° C. in Tris-buffered saline (Maki et al., Immunol. 169:2346-2353 (2002)). Plates were then briefly rinsed with PBS, co-coated with 1 μg/ml of CXCL12, CCL19, or no chemokine in PBS for 2 hr at 4° C., and blocked with 1% BSA/PBS for 1 hr at 4° C. Calcein-acetomethyl (AM)-labeled (Molecular Probes, Eugene, Oreg.) CXCR4-B16 or pLNCX2-B16 cells (2.5×10^5 cells/ml in cDMEM) were injected at 1.5 dynes/cm^2 into a parallel plate flow chamber (Glycotech, Gaithersburg, Md.) that had been placed over the adhesion molecule- and/or chemokine-coated suspension plate.
For dynamic assays on recombinant molecule-coated plates as well as on LMEC, tumor cells were introduced into the chamber under a constant shear stress of 1.5 dynes/cm^2 without allowing cells to settle at any time during the assay. Ten min after flow was initiated, arrested cells were digitally photographed (without flow being decreased) in 4-6 random fields (each field=1.18 mm^2) with excitation at 488 nm and emission at 513 nm using sufficient exposure time (˜1 s) to allow distinction between moving cells, which appeared as dim streaks, and stationary cells. Cells were then enumerated with the software program IPlab (Scanalytics, Fairfax, Va.). […]

CXCR4-B16 cells [8] = experiment: adhesion of CXCR4-B16 cells to resting DMEC in parallel plate flow chamber; assay type: cell-based, murine; conditions: DMEC exposed to 100 ng/ml chemokine for 15 min; 1.5 dynes/cm^2
Protocol: Prior to interaction with tumor cells, resting confluent DMEC or LMEC were exposed to 100 ng/ml of recombinant CXCL12 or CCL21 for 15 min at 20° C. as described (Cinamon et al., Nat. Immunol. 2: 515-22 (2001)). After unbound chemokine was washed away, calcein-AM-labeled (Molecular Probes, Eugene, Oreg.) CXCR4- or pLNCX2-B16 cells (2.5×10^5/ml in B16 medium) were injected at 1.5 dynes/cm^2 into a parallel plate flow chamber (Glycotech, Gaithersburg, Md.) containing confluent DMEC or LMEC. In some cases, tumor cells were treated with pertussis toxin (PTX, Calbiochem, San Diego, Calif.) at 100 ng/ml for 2 hours at 37° C. to block Gi-protein-coupled signaling. After two min, flow was stopped, which enabled B16 cells to interact with MEC in the absence of shear stress. After 5 min, shear was re-established at 1.5 dynes/cm^2 for up to 2 min in order to detach unbound cells; adherent cells were digitally photographed in 5-6 random fields (each field=1.18 mm^2) with excitation at 488 nm and emission at 513 nm using sufficient exposure time (˜1 s) to allow distinction between non-moving and moving cells (which appeared as dim streaks) (Fitzhugh et al. (2000), supra). Cells were then counted with the software program IPlab (Scanalytics, Fairfax, Va.). […]

[9] = peptide 1 μg/ml together with SDF-1 (CXCL12 500 ng/ml)
[10] = treatment alone, CXCL12 500 ng/ml, peptide 1 μg/ml

## NH2-RRWCYRKCYKGYCYRKCR-COOH (H-RRWCYRKCYKGYCYRKCR-OH; cysteine pairing not given here) [T22]
pLNCX2-B16 cells [1]
  effect on metastasis: did not block metastasis
pLNCX2-B16 cells [2]; [9]
  cell count pLNCX2-B16 24 h: 12.3 ± 0.6
  cell count pLNCX2-B16 48 h: 21.7 ± 3.2
pLNCX2-B16 cells [2]; [10]
  cell count pLNCX2-B16 24 h: 10.7 ± 1.2
  cell count pLNCX2-B16 48 h: 21.0 ± 1.0
pLNCX2-B16 cells [2]
  effect on growth of pLNCX2-B16 cells: did not affect the growth
[3]
  block of in vitro chemotaxis to CXCL12: block specifically
CXCR4-B16 cells [4]
  effect on pulmonary metastasis: reduced metastasis to levels seen in pLNCX2-B16 injected mice
  Luciferase activity (RLU): 1114 ± 956 RLU
  Average weight: 0.55 g
CXCR4-B16 cells [4]; T22 daily 2nd week only
  Average Relative Luciferase Units: 81981.2 Relative Luciferase Units
CXCR4-B16 cells [4]; T22 daily for 2 weeks
  Average Relative Luciferase Units: 15294.5 Relative Luciferase Units
CXCR4-B16 cells [4]; T22 i.p. for the first two days of the 14-day assay
  protection against CXCR4-mediated pulmonary metastasis: as effective as giving T22 daily for the entire 2-week course
CXCR4-B16 cells [4]; T22 treatment during the second week only
  metastatic burden: same metastatic burden as PBS (mock) treatment
CXCR4-B16 cells [5]
  effect of peptide alone on growth: did not significantly alter growth
  block of growth stimulated by CXCL12: could be blocked
CXCR4-B16 cells [5]; [9]
  cell count CXCR4-B16 24 h: 12.7 ± 2.1
  cell count CXCR4-B16 48 h: 20.7 ± 3.0
CXCR4-B16 cells [5]; [10]
  cell count CXCR4-B16 24 h: 11.0 ± 1.0
  cell count CXCR4-B16 48 h: 22.0 ± 1.0
CXCR4-B16 cells [6]
  effect on growth of cells injected into the footpad: no significant effect on the growth

## H-KWAFRVAYRGIAYRRAR-OH [ALA, reference compound]
pLNCX2-B16 cells [2]; [9]
  cell count pLNCX2-B16 24 h: 10.7 ± 2.9
  cell count pLNCX2-B16 48 h: 22.7 ± 3.2
pLNCX2-B16 cells [2]; [10]
  cell count pLNCX2-B16 24 h: 10.0 ± 1.0
  cell count pLNCX2-B16 48 h: 20.3 ± 3.5
pLNCX2-B16 cells [2]
  effect on growth of pLNCX2-B16 cells: did not affect the growth
[3]
  block of in vitro chemotaxis to CXCL12: no inhibitory effect
CXCR4-B16 cells [4]
  effect on pulmonary metastasis: no effect
  Luciferase activity (RLU): 43928 ± 29729 RLU
  Average weight: 0.88 g
CXCR4-B16 cells [5]
  effect of peptide alone on growth: did not significantly alter growth
  block of growth stimulated by CXCL12: but not by the control peptide
CXCR4-B16 cells [5]; [9]
  cell count CXCR4-B16 24 h: 16.0 ± 1.0
  cell count CXCR4-B16 48 h: 33.3 ± 6.7
CXCR4-B16 cells [5]; [10]
  cell count CXCR4-B16 24 h: 12.0 ± 0.1
  cell count CXCR4-B16 48 h: 22.3 ± 1.2

## CCL19: an unrelated chemokine used as control
CXCR4-B16 cells [7]
  Mean adherent cells/field: 17.2 cells/field
CXCR4-B16 cells [8]
  adherent B16-CXCR4 cells on DMEC (Table 6): 6.8
